# In patent publication US5273989A, “3,5-disubstituted 2-isoxazolines and isoxazoles, agents containing them and their use” (Hoechst Aktiengesellschaft, priority 1990, dated 1993):
# Structures can show the parent of a compound that is named as a salt. Where two headings read alike, the source gives them in different places.
# Tests used:
# [1] = Toxicity (LD50) in the mouse; conditions: in vivo
# From the text: As the examples investigated show considerable differences in toxicity compared to the standard substances, the LD50 values are also listed in Table 6,
# NMDA-induced cramps = assay: Inhibition of NMDA-induced cramps in the mouse; assay type: in vivo; conditions: po, 1 h; for inhibition in vivo at 0.3 mg/kg: 0.3 mg/kg p.o.
# Description: 4. Inhibition of NMDA-induced-cramps in the mouse
# The examples listed below show neuroprotective activity in that they antagonize the cramps induced by NMDA (N-methyl-(D)-aspartate). To this end, intravenous injections of 20-30 mg/kg of NMDA are carried out on a male NMRI (Naval Medical Research Institute) mice of 22-24 g body weight, which leads to stereotypes, clonic cramps and in the majority of cases to mortality. In order to investigate an NMDA-antagonist activity of the test substances, they are administered orally one hour before NMDA. The animals are then observed for the abovementioned symptoms for up to 60 min. The number of animals with clonic cramps and the incidence of mortality, expressed in percent change compared to the control group, is regarded as the evaluation criterion.
# [2] = tested on: high affinity 3H-D-aspartate absorption, synaptic vesicles (synaptosomes) from rat cortex; assay: "High affinity" absorption of 3H-aspartate in a vesicle preparation from rat brain; assay type: biochemical; conditions: for Stimulation of the 3H-D-aspartate absorption, Stimulation (%): relative to control values (100%)
# Description: 1. "High affinity" absorption of ^3 H-aspartate in a vesicle preparation from rat brain.
# Test principle: Fresh synaptic vesicles (synaptosomes) from rat cortex are incubated with buffer solution and ^3 H-D-aspartate and ^3 H-D-aspartate in the vesicles is measured. Preparations which in comparison to control synaptosomes increase the high affinity ^3 H-D-aspartate absorption and those which prevent the loss of ^3 H-D-aspartate by reliberation are regarded as particularly interesting.
# Experimental protocol: The experiments for ^3 H-D-aspartate absorption were carried out by the method of Anand et al. (Biochem. Pharmacol., 35 (1986), 1055-1057). The synaptic vesicles were dissected out of cerebral cortex from male Sprague-Dawley rats. The preparations were tested at four concentrations as double samples in parallel with control samples containing buffer. The incubation medium (pH 7.4) contains: 1.2 mM KH2 PO4, 5 mM KCl, 5 mM pyruvate, 1.2 mM glucose, 1.2 mM MgCl2, 114 mM NaCl, 25 mM NaHCO3. For the non-specific ^3 H-D-aspartate absorption, NaCl was replaced by 114 mM choline chloride and NaHCO3 by 25 mM KHCO3. An aliquot of the vesicle suspension (about 25 μg/ml of test solution) was added to the test sample which was temperature controlled at 37° C. and aerated with Carbogen (5% CO2, 95% O2) and preincubated for 2 minutes. The three minutes incubation for the amino acid absorption was started by addition of 50 μl of ^3 H-D-aspartate (specific activity 25 Ci/mmol, 10 pmol/ml of test solution). The vesicles were separated from the incubation medium by filtration and additional washing of the adhering labeled amino acids using a Titertek cell harvester (Flow Laboratories, Meckenheim). The ^3 H-D-aspartate absorption was measured by means of a liquid scintillation counter (Canberra-Packard, Model 1500, Frankfurt).
# The preparation activity is indicated in percent of the specific ^3 H-D-aspartate absorption, relative to control values (100%), in Table 3. Adenosine triphosphate (ATP) was used for comparison as the standard substance (see Table 3) and at 1 mM caused a 35% increase in the ^3 H-D-aspartate absorption.
# [3] = tested on: CA1 pyramidal cells of the hippocampus after forebrain ischemia; assay: Neuroprotection after forebrain ischemia in the gerbil; conditions: for Cell necroses (% change) / Behavior score (% change): 15 minutes before ischemia; for Cell necroses (% change): histopathological score CA1, treated versus control group; for Behavior score (% change): treated versus control group
# Description: A 5-minutes' ischemia of the forebrain with subsequent recirculation is produced in 20 male Mongolian gerbils under halothane anesthesia by bilateral closure of the corotid artery by means of aneurysm clips. 7 days later, the animals are decapitated under halothane anesthesia, the brains are fixed by immersion in Carnoy solution and the extent of neuron damage in the CA1 region of the hippocampus is determined "blind" with the aid of a 5-stage histopathological score. The test substance is administered intraperitoneally or orally 15 minutes before ischemia to each group of 10 gerbils. One ischemic control group, also of 10 animals, is treated with the respective solvents per test substance.
# [4] = 50 mg/kg p.o., one hour before NMDA i.v., change compared to control group, read-out: Inhibition of convulsions
# [5] = preparation concentration 100 μM
# [6] = preparation concentration 10 μM
# [7] = preparation concentration 500 μM
# [8] = preparation concentration 1000 μM (1 mM)
# [9] = read-out: Inhibition of mortality
# [10] = one hour before NMDA i.v., change compared to control group, read-out: Inhibition of convulsions
# [11] = one hour before NMDA i.v., change compared to control group, read-out: Inhibition of mortality
compound,measurement,setting,value
"NCC1CC(CCC(=O)O)=NO1 (racemic) [Example 29, 5-Aminomethyl-2-isoxazoline-3-propionic acid, racemate]",LD50,[1]; iv,> 200 mg/kg
same,inhibition in vivo at 50 mg/kg,NMDA-induced cramps; [4],20%
"C[C@H]1C[C@@H](OC(=O)CCc2cc(CN)on2)CC(C)(C)C1 (relative stereo) [Example 9, cis-(3,3,5)trimethylcyclohexyl 5-aminomethylisoxazole-3-propionate toluene-4-sulfonate]","Stimulation of the 3H-D-aspartate absorption, Stimulation (%)",[2]; [5],19%
"C[C@H]1C[C@@H](OC(=O)CCc2cc(C[N+](C)(C)C)on2)CC(C)(C)C1 (relative stereo) [Example 58, cis-(3,3,5)-trimethylcyclohexyl-5-trimethylammoniomethylisoxazole-3-propionate iodide]","Stimulation of the 3H-D-aspartate absorption, Stimulation (%)",[2]; [6],35%
"NCC1CC(CCC(=O)O)=NO1 (single isomer, unassigned) [Example 31, 5-Aminomethyl-2-isoxazoline-3-propionic acid, (+)-enantiomer]","Stimulation of the 3H-D-aspartate absorption, Stimulation (%)",[2]; [7],21%
"CC(C)[C@H]1CC[C@H](C)C[C@@H]1OC(=O)CCC1=NOC(CN)C1 (single isomer, unassigned; (+)) [Example 27, (+)-Menthyl 5-aminomethyl-2-isoxazoline-3-propionate toluene-4-sulfonate]",LD50,[1]; iv,50 to 100 mg/kg
same,inhibition in vivo at 50 mg/kg,NMDA-induced cramps; [4],20%
"CC(C)[C@@H]1CC[C@@H](C)C[C@H]1OC(=O)CCC1=NOC(CN)C1 (single isomer, unassigned; (-)) [Example 28, (-)-Menthyl 5-aminomethyl-2-isoxazoline-3-propionate toluene-4-sulfonate]",inhibition in vivo at 50 mg/kg,NMDA-induced cramps; [4],20%
"Nc1ncnc2c1ncn2[C@@H]1O[C@H](COP(=O)(O)OP(=O)(O)OP(=O)(O)O)[C@@H](O)[C@H]1O [ATP, Adenosine triphosphate, reference compound]",activity on 3H-D-aspartate absorption (in words),[2]; at a lower concentration than 500 μm,inactive
same,"Stimulation of the 3H-D-aspartate absorption, Stimulation (%)",[2]; [7],31%
same,"Stimulation of the 3H-D-aspartate absorption, Stimulation (%)",[2]; [8],35%
same,"Stimulation of the 3H-D-aspartate absorption, Stimulation (%)",[2]; preparation concentration 2000 μM,57%
same,"Stimulation of the 3H-D-aspartate absorption, Stimulation (%)",[2]; preparation concentration 5000 μM,121%
"Cl.O=C(C1=NOC(CN2CCCC2)C1)N1CCCC1 (centres unmarked) [Example 3, 5-Pyrrolidinomethyl-3-pyrrolidinocarbonyl-2-isoxazoline hydrochloride]","Stimulation of the 3H-D-aspartate absorption, Stimulation (%)",[2]; [7],20%
"CCOC(=O)CCc1cc(CN)on1.Cl [Example 6, ethyl 5-aminomethylisoxazole-3-propionate hydrochloride]",LD50,[1]; iv,> 100 mg/kg
same,inhibition in vivo at 50 mg/kg,NMDA-induced cramps; [4],20%
same,inhibition in vivo at 50 mg/kg,NMDA-induced cramps; [9],40%
same,"Stimulation of the 3H-D-aspartate absorption, Stimulation (%)",[2]; [6],17%
"CCOP(C)(=O)CCc1cc(CN)on1 (centres unmarked) [Example 10, ethyl 2-(5-aminomethylisoxazole-3-yl)ethyl-2-(P-methyl)phosphinic acid hydrochloride]",LD50,[1]; iv,> 100 mg/kg
same,inhibition in vivo at 50 mg/kg,NMDA-induced cramps; [4],10%
same,inhibition in vivo at 50 mg/kg,"NMDA-induced cramps; 50 mg/kg p.o., one hour before NMDA i.v., change compared to control group, read-out: Inhibition of mortality",70%
same,"Stimulation of the 3H-D-aspartate absorption, Stimulation (%)",[2]; [7],23%
"CC(C)(N)c1cc(CCC(=O)O)no1 [Example 13, 5-(1-Amino-1-methylethyl)isoxazole-3-propionic acid]","Stimulation of the 3H-D-aspartate absorption, Stimulation (%)",[2]; [7],33%
"O=C(O)CCc1cc(CNCc2ccccc2)on1 [Example 14, 5-Benzylaminomethylisoxazole-3-propionic acid]",LD50,[1]; ip,> 300 mg/kg
same,inhibition in vivo at 50 mg/kg,NMDA-induced cramps; [4],40%
same,"Stimulation of the 3H-D-aspartate absorption, Stimulation (%)",[2]; [7],19%
"CN(C)Cc1cc(CCC(=O)O)no1 [Example 15, 5-Dimethylaminomethylizoxazole-3-propionic acid]",LD50,[1]; iv,> 100 mg/kg
same,inhibition in vivo at 50 mg/kg,NMDA-induced cramps; [4],40%
same,inhibition in vivo at 50 mg/kg,NMDA-induced cramps; [9],100%
"CP(=O)(O)CCc1cc(CN)on1 [Example 16, 2-(5-Aminomethylisoxazol-3-yl)ethyl-2-(-methyl)phosphinic acid hydrochloride]",Cell necroses (% change),[3]; 50 mg/kg p.o.,-27 % change
same,Behavior score (% change),[3]; 50 mg/kg p.o.,0 % change
same,inhibition in vivo at 50 mg/kg,NMDA-induced cramps; read-out: Inhibition of convulsions,30%
same,inhibition in vivo at 50 mg/kg,NMDA-induced cramps; [9],30%
same,"Stimulation of the 3H-D-aspartate absorption, Stimulation (%)",[2]; [8],19%
"CC(=O)NCc1cc(CCC(=O)O)no1 [Example 17, 5-Acetamidomethylisoxazole-3-propionic acid]",LD50,[1]; ip,> 300 mg/kg
same,inhibition in vivo at 30 mg/kg,"NMDA-induced cramps; 30 mg/kg p.o., one hour before NMDA i.v., change compared to control group, read-out: Inhibition of convulsions",30%
same,inhibition in vivo at 30 mg/kg,NMDA-induced cramps; [9],100%
"N=C(N)NCc1cc(CCC(=O)O)no1 [Example 23, 5-Guanidinomethylisoxazole-3-propionic acid]",LD50,[1]; ip,> 300 mg/kg
same,inhibition in vivo at 50 mg/kg,NMDA-induced cramps; [4],40%
"NCc1cc(CCC(=O)NCC(=O)O)no1 [Example 24, N-(5-Aminomethylisoxazol-3-yl)propionylglycine]","Stimulation of the 3H-D-aspartate absorption, Stimulation (%)",[2]; [7],28%
"Cl.NCc1cc(CCO)no1 [Example 25, 5-Aminomethyl-3-(2-hydroxyethyl)isoxazole hydrochloride]","Stimulation of the 3H-D-aspartate absorption, Stimulation (%)",[2]; [7],20%
"N.N.O=C(O)CCc1cc(CNCc2cc(CCC(=O)O)no2)on1 [Example 26, Bis(3-[2-carboxyethyl]isoxazol-5-ylmethyl)amine diammonium salt]",LD50,[1]; iv,> 100 mg/kg
same,inhibition in vivo at 50 mg/kg,NMDA-induced cramps; [4],40%
CC(=O)NCC1CC(CCC(=O)O)=NO1 (centres unmarked) [Example 32],LD50,[1]; iv,> 100 mg/kg
same,inhibition in vivo at 50 mg/kg,NMDA-induced cramps; [4],30%
same,inhibition in vivo at 50 mg/kg,NMDA-induced cramps; [9],50%
same,"Stimulation of the 3H-D-aspartate absorption, Stimulation (%)",[2]; [5],19%
CN(C)C(=O)C1=NOC(CN)C1 (centres unmarked) [Example 39],"Stimulation of the 3H-D-aspartate absorption, Stimulation (%)",[2]; [8],14%
"Cl.NCc1cc(CCC(N)=O)no1 [Example 50, 5-aminomethylisoxazole-3-propionamide hydrochloride]","Stimulation of the 3H-D-aspartate absorption, Stimulation (%)",[2]; [7],15%
O=C(O)CCc1cc(CNC(=O)CCC[N+](=O)[O-])on1 [Example 53],inhibition in vivo at 50 mg/kg,NMDA-induced cramps; [4],33%
"COC(=O)CCc1cc(C=NO)no1 [Example 55, methyl-3-hydroxyliminomethyl-isoxazole-5-propionate]",inhibition in vivo at 50 mg/kg,NMDA-induced cramps; [4],33%
same,inhibition in vivo at 50 mg/kg,NMDA-induced cramps; [9],100%
"C[C@]12N[C@H](Cc3ccccc31)c1ccccc12 [MK 801, (+)-5-methyl-10,11-dihydro-5H-dibenzo[a,d]cyclohept-5-en-10-imine, reference compound]",LD50,[1]; iv,30 to 60 mg/kg
same,inhibition in vivo at 0.3 mg/kg,NMDA-induced cramps; [10],60%
same,inhibition in vivo at 0.3 mg/kg,NMDA-induced cramps; [11],60%
"NCc1cc(=O)[nH]o1 [Muscimol, 5-(aminomethyl)-3(2H)-isoxazolone, reference compound]",Cell necroses (% change),[3]; 5 mg/kg i.p.,-74 % change
same,Behavior score (% change),[3]; 5 mg/kg i.p.,+41 % change
same,"post-ischemic neurological symptoms, behavior score (in words)",[3]; summary of Table 7,distinctly more negative post-ischemic symptoms in the behavior score
same,protection of cerebral nerve cells / dying cells (in words),[3]; summary of Table 7,reduction in the dying cells
same,LD50,[1]; iv,3 to 10 mg/kg
same,inhibition in vivo at 0.3 mg/kg,NMDA-induced cramps; [10],40%
same,inhibition in vivo at 0.3 mg/kg,NMDA-induced cramps; [11],60%
